Results: patent US9834558B2, “Substituted bridged urea analogs as sirtuin modulators” (GLAXOSMITHKLINE LLC, priority 2013, dated 2017)
Read-outs that look alike come from different tables or passages of the source.

Molecular target: T1, SIRT1 (Homo sapiens, UniProt Q96EB6)
T1 sequence (Q96EB6 1-747): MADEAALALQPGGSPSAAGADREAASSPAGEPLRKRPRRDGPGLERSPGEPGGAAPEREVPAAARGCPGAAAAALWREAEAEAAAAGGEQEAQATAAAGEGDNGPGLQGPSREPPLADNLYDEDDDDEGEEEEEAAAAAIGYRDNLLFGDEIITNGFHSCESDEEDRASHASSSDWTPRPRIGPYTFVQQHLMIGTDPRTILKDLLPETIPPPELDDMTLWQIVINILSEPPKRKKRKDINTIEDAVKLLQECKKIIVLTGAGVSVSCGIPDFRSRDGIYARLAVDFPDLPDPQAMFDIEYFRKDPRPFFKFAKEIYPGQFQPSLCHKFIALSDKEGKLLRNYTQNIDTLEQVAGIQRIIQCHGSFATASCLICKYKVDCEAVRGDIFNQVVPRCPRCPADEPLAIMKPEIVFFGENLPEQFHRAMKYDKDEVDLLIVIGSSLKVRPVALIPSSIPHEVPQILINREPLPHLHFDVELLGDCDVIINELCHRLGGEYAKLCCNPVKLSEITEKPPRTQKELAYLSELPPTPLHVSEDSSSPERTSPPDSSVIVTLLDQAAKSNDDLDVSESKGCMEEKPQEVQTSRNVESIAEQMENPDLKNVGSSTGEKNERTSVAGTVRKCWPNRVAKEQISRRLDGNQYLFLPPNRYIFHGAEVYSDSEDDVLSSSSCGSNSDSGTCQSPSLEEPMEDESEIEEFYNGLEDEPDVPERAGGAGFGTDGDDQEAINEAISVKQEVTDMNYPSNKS
Assay: Trp mass spectrometry assay of SIRT1 activation
Type: biochemical
Conditions: for TRP Activity (EC1.5): EC1.5 = concentration that results in 150% activation of SIRT1
Method in brief: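 N-terminal His-tagged human SIRT1 (10 nM, E. coli BL21(DE3)) with 0.5 μM Ac-RHKK(Ac)W-NH2 peptide and 120 μM βNAD+, 25 min at 25 °C in HEPES pH 7.5, formic acid stop. OAADPR or deacetylated peptide quantified by mass spectrometry; EC1.5 (50% activity increase over control) and Percent Maximum Activation reported.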

[1] = Trp peptide assay, maximum activity relative to control (100%), read-out: TRP MAX RESP (percent maximum fold activation)
[2] = concentration giving 150% activation of SIRT1, Trp peptide substrate
[3] = Trp mass spectrometry assay, EC1.5 = concentration of test compound that results in 150% activation of SIRT1
[4] = Trp mass spectrometry assay, concentration of test compound giving 150% activation of SIRT1

For `Cc1cc(-c2ccc3c(n2)N(C(=O)Nc2ncnc4[nH]nnc24)[C@H]2CCN3C2)ccn1` [(9S)-5-(2-methylpyridin-4-yl)-N-{3H-[1,2,3]triazolo[4,5-d]pyrimidin-7-yl}-1,6,8-triazatricyclo[7.2.1.0^{2,7}]dodeca-2,4,6-triene-8-carboxamide], the “TRP Activity (EC1.5)” value (Trp peptide assay) was “C (C (EC1.5>25 μM))” and the Emax [1] was less than 150%.

In the case of `Cc1cc(-c2ccc3c(n2)N(C(=O)Nc2cccnn2)[C@H]2CCN3C2)ccn1` [(9S)-5-(2-methylpyridin-4-yl)-N-(pyridazin-3-yl)-1,6,8-triazatricyclo[7.2.1.0 {2,7}]dodeca-2(7),3,5-triene-8-carboxamide], the “TRP Activity (EC1.5)” value (Trp peptide assay) is reported as “B (B (EC1.5 1-25 μM))” and the Emax [1] is reported as greater than 150%.

`O=C(Nc1ccnc(OC[C@H](O)CO)n1)N1c2nc(-c3cccc(C(F)(F)F)c3)ccc2N2CC[C@H]1C2` [Example 818] was tested, and the “Tryp AVG EC1.5 (μM)” value [2] was “A (A (EC1.5<1 μM))” and the Emax (percent maximum fold activation of SIRT1, Trp peptide substrate, read-out: Tryp % Fold Act) was greater than 150%.

`O=C(Nc1ccccn1)N1c2nc(N3CCOC(C(F)(F)F)C3)ccc2N2CC[C@H]1C2` (stereo partly drawn) [(9S)-N-(pyridin-2-yl)-5-[2-(trifluoromethyl)morpholin-4-yl]-1,6,8-triazatricyclo[7.2.1.0 {2,7}]dodeca-2(7),3,5-triene-8-carboxamide] was tested, and the “TRP Activity (EC1.5)” value (Trp peptide assay) was “B (B (EC1.5 1-25 μM))” and the Emax [1] was greater than 150%.

For `NCc1ncc(-c2cccc(NC(=O)N3c4nc(-c5cccc(C(F)(F)F)c5)ccc4N4CC[C@H]3C4)c2)o1` [Example 725], the “Tryp AVG EC1.5 (μM)” value [2] was “A (A (EC1.5<1 μM))”.

For `COc1cc(NC(=O)N2c3nc(-c4cccc(N5CCOCC5)c4)ccc3N3CCC[C@H]2C3)ncn1` [Example 528], the “Tryp AVG EC1.5 (μM)” value [3] was “B (B (EC1.5 1-25 μM))”.

In the case of `O=C(Nc1ccc(F)cn1)N1c2nc(-c3cncc(Cl)c3)ccc2N2CCC[C@H]1C2` [Example 401], the “Tryp AVG EC1.5 (μM)” value [4] is reported as “A (A (EC1.5<1 μM))”.

In the case of `COc1cc(NC(=O)N2c3nc(-c4cccc(C(F)(F)F)n4)ccc3N3CC[C@H]2C3)ncn1` [Example 339], the “Tryp AVG EC1.5 (μM)” value [4] is reported as “B (B (EC1.5 1-25 μM))”.

For `N#Cc1cccc(-c2ccc3c(n2)N(C(=O)Nc2ccncn2)[C@H]2CCCN3C2)c1` [Example 352], the “Tryp AVG EC1.5 (μM)” value [4] was “A (A (EC1.5<1 μM))”.

With `O=C(Nc1cccc(C2(C(F)(F)F)N=N2)c1)N1c2nc(-c3cccc(C(F)(F)F)c3)ccc2N2CCC[C@H]1C2` [Example 335] the “Tryp AVG EC1.5 (μM)” value [4] was “A (A (EC1.5<1 μM))”.

For `C#CCOc1cc(-c2ccc3c(n2)N(C(=O)Nc2cccc(C4(C(F)(F)F)N=N4)c2)[C@H]2CCN3C2)cc(C(F)(F)F)c1` [Example 800], the “Tryp AVG EC1.5 (μM)” value [2] was “C (C (EC1.5>25 μM))”.

`Cc1cc(-c2ccc3c(n2)N(C(=O)Nc2ccc4[nH]ncc4n2)[C@H]2CCN3C2)ccn1` [(9S)-5-(2-methylpyridin-4-yl)-N-{1H-pyrazolo[4,3-b]pyridin-5-yl}-1,6,8-triazatricyclo[7.2.1.0 {2,7}]dodeca-2(7),3,5-triene-8-carboxamide] was tested, and the “TRP Activity (EC1.5)” value (Trp peptide assay) was “A (A (EC1.5<1 μM))” and the Emax [1] was greater than 150%.

For `O=C(Nc1cnccn1)N1c2nc(-c3ccnc(C(F)(F)F)c3)ccc2N2CCC[C@H]1C2` [(9S)-N-(pyrazin-2-yl)-5-[2-(trifluoromethyl)pyridin-4-yl]-1,6,8-triazatricyclo[7.3.1.0 {2,7}]trideca-2(7),3,5-triene-8-carboxamide], the “TRP Activity (EC1.5)” value (Trp peptide assay) was “A (A (EC1.5<1 μM))” and the Emax [1] was greater than 150%.

For `O=C(Nc1cnccn1)N1c2nc(-c3ccnc(C4CC4)c3)ccc2N2CC[C@H]1C2` [(9S)-5-(2-cyclopropylpyridin-4-yl)-N-(pyrazin-2-yl)-1,6,8-triazatricyclo[7.2.1.0 {2,7}]dodeca-2,4,6-triene-8-carboxamide], the “TRP Activity (EC1.5)” value (Trp peptide assay) was “A (A (EC1.5<1 μM))” and the Emax [1] was greater than 150%.

In the case of `COc1cncc(NC(=O)N2c3nc(-c4cccc(N5CCCC5)c4)ccc3N3CC[C@H]2C3)n1` [Example 366], the “Tryp AVG EC1.5 (μM)” value [4] is reported as “A (A (EC1.5<1 μM))”.

With `O=C(Nc1ccncc1)N1c2nc(-c3cccc(C(F)(F)F)c3)ccc2N2CCC[C@H]1C2` [Example 821] the “Tryp AVG EC1.5 (μM)” value [2] was “A (A (EC1.5<1 μM))”.

In the case of `O=C(NCc1ccc(NC(=O)N2c3nc(-c4cccc(C(F)(F)F)c4)ccc3N3CC[C@H]2C3)cc1)OC[C@@H]1[C@@H]2CCC#CCC[C@@H]21` [Example 796], the “Tryp AVG EC1.5 (μM)” value [2] is reported as “B (B (EC1.5 1-25 μM))”.

With `O=C(O)c1cc(NC(=S)NCc2ccc(NC(=O)N3c4nc(-c5cccc(C(F)(F)F)c5)ccc4N4CC[C@H]3C4)cc2)ccc1-c1c2ccc(=O)cc-2oc2cc(O)ccc12` [Example 530] the “Tryp AVG EC1.5 (μM)” value [3] was “A (A (EC1.5<1 μM))” and the Emax (Trp mass spectrometry assay, percent maximum fold activation of SIRT1, read-out: Tryp % Fold Act) was greater than 150%.

`Cc1cc(-c2ccc3c(n2)N(C(=O)Nc2ccc4c(c2)OCCCO4)[C@H]2CCN3C2)ccn1` [(9S)-N-(3,4-dihydro-2H-1,5-benzodioxepin-7-yl)-5-(2-methylpyridin-4-yl)-1,6,8-triazatricyclo[7.2.1.0 {2,7}]dodeca-2,4,6-triene-8-carboxamide] was tested, and the “TRP Activity (EC1.5)” value (Trp peptide assay) was “A (A (EC1.5<1 μM))” and the Emax [1] was greater than 150%.

In the case of `CS(=O)(=O)c1cncc(-c2ccc3c(n2)N(C(=O)Nc2ccncn2)[C@H]2CCCN3C2)c1` [Example 379], the “Tryp AVG EC1.5 (μM)” value [4] is reported as “A (A (EC1.5<1 μM))”.

`O=C(NCCCCn1ccnc1)N1c2nc(-c3cccc(C(F)(F)F)c3)ccc2N2CC[C@H]1C2` [Example 689] was tested, and the “Tryp AVG EC1.5 (μM)” value [2] was “B (B (EC1.5 1-25 μM))”.

With `COc1cc(NC(=O)N2c3nc(-c4cccc(C(F)(F)F)c4)ccc3N3C[C@@H](O)[C@H]2C3)nc(OC)n1` [Example 664] the “Tryp AVG EC1.5 (μM)” value [2] was “B (B (EC1.5 1-25 μM))”.

`O=C(Nc1cnccn1)N1c2nc(N3CCNCC3)ccc2N2CC[C@H]1C2` [(9S)-5-(piperazin-1-yl)-N-(pyrazin-2-yl)-1,6,8-triazatricyclo[7.2.1.0 {2,7}]dodeca-2,4,6-triene-8-carboxamide] was tested, and the “TRP Activity (EC1.5)” value (Trp peptide assay) was “C (C (EC1.5>25 μM))” and the Emax [1] was less than 150%.

`C#CCCCNc1nccc(NC(=O)N2c3nc(-c4cccc(C5(C(F)(F)F)N=N5)c4)ccc3N3CC[C@H]2C3)n1` [Example 801] was tested, and the “Tryp AVG EC1.5 (μM)” value [2] was “A (A (EC1.5<1 μM))”.

In the case of `Cc1ccc(NC(=O)N2c3nc(-c4ccnc(C)c4)ccc3N3CC[C@H]2C3)cn1` [(9S)-N-(6-methylpyridin-3-yl)-5-(2-methylpyridin-4-yl)-1,6,8-triazatricyclo[7.2.1.0 {2,7}]dodeca-2(7),3,5-triene-8-carboxamide], the “TRP Activity (EC1.5)” value (Trp peptide assay) is reported as “B (B (EC1.5 1-25 μM))” and the Emax [1] is reported as greater than 150%.

`O=C(Nc1nccc(N2CCNCC2)n1)N1c2nc(-c3cccc(C(F)(F)F)c3)ccc2N2CC[C@H]1C2` [Example 745] was tested, and the “Tryp AVG EC1.5 (μM)” value [2] was “B (B (EC1.5 1-25 μM))”.

`CN(C)c1ccc(-c2ccc3c(n2)N(C(=O)Nc2ccccn2)[C@H]2CCN3C2)cn1` [Example 345] was tested, and the “Tryp AVG EC1.5 (μM)” value [4] was “B (B (EC1.5 1-25 μM))”.

`Cc1nc(C)c(-c2ccc3c(n2)N(C(=O)Nc2cccnc2)[C@H]2CCN3C2)s1` [Example 495] was tested, and the “Tryp AVG EC1.5 (μM)” value [3] was “B (B (EC1.5 1-25 μM))”.

`Cn1ccc(-c2ccc3c(n2)N(C(=O)Nc2cccnc2)[C@H]2CCN3C2)cc1=O` [(9S)-5-(1-methyl-2-oxo-1,2-dihydropyridin-4-yl)-N-(pyridin-3-yl)-1,6,8-triazatricyclo[7.2.1.0 {2,7}]dodeca-2(7),3,5-triene-8-carboxamide] was tested, and the “TRP Activity (EC1.5)” value (Trp peptide assay) was “B (B (EC1.5 1-25 μM))” and the Emax [1] was greater than 150%.

For `CCn1ncc2c(NC(=O)N3c4nc(-c5cccc(C(F)(F)F)c5)ccc4N4CC[C@H]3C4)cccc21` [81 (9)], the “Tryp AVG EC1.5 (μM)” value (Trp peptide substrate, concentration giving 150% activation of SIRT1) was “A (A (EC1.5<1 μM))”.

In the case of `NCCCc1ccc(NC(=O)N2c3nc(-c4cccc(C(F)(F)F)c4)ccc3N3CC[C@H]2C3)cc1-c1cnco1` [Example 765], the “Tryp AVG EC1.5 (μM)” value [2] is reported as “A (A (EC1.5<1 μM))”.
